Assays:
Androgen receptor [1] = target: T1, Androgen receptor (Rattus norvegicus, UniProt P15207)
T1 sequence (P15207 whole entry): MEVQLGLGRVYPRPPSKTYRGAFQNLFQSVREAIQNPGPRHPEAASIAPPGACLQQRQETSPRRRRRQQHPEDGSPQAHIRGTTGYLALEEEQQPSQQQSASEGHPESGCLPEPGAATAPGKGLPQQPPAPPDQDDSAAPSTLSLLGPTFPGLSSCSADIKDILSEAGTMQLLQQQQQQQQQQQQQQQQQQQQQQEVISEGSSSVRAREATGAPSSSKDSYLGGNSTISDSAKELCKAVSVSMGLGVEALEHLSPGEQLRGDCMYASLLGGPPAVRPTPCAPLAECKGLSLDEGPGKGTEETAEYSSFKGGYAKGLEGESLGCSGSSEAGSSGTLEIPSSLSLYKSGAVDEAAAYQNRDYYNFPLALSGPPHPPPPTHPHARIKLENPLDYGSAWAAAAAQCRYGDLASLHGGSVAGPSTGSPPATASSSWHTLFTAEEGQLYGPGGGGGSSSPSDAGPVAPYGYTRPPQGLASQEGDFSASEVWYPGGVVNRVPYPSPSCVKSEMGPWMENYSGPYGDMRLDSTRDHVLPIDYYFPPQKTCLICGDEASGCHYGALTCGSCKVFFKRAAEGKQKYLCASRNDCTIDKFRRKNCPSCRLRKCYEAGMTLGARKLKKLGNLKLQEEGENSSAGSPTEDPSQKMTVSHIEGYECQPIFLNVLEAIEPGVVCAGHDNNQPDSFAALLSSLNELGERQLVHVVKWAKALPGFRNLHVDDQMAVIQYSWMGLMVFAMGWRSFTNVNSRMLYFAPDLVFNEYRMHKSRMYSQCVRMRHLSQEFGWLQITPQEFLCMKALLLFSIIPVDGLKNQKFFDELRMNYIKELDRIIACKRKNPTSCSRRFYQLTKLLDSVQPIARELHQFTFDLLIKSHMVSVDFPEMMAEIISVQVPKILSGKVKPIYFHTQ

Androgen receptor [2] = target: T1, Androgen receptor; type: functional
Endothelin-1 receptor = target: T2, Endothelin-1 receptor (Homo sapiens, UniProt P25101)
T2 sequence (P25101 whole entry): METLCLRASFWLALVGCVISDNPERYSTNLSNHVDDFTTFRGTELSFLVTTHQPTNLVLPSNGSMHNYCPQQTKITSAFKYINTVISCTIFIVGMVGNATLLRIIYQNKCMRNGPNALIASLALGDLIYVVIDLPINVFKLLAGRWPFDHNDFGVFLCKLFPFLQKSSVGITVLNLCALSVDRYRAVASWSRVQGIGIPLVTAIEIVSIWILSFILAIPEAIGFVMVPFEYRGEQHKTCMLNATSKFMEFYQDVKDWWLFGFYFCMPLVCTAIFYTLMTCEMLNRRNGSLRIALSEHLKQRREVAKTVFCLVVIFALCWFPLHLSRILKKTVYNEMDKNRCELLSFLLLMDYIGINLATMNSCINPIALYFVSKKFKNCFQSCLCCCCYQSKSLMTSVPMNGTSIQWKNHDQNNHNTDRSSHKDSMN

Androgen receptor [3] = target: T1, Androgen receptor; type: functional; remark: listed apart in the source
Progesterone receptor = target: T3, Progesterone receptor (Homo sapiens, UniProt P06401)
T3 sequence (P06401 whole entry): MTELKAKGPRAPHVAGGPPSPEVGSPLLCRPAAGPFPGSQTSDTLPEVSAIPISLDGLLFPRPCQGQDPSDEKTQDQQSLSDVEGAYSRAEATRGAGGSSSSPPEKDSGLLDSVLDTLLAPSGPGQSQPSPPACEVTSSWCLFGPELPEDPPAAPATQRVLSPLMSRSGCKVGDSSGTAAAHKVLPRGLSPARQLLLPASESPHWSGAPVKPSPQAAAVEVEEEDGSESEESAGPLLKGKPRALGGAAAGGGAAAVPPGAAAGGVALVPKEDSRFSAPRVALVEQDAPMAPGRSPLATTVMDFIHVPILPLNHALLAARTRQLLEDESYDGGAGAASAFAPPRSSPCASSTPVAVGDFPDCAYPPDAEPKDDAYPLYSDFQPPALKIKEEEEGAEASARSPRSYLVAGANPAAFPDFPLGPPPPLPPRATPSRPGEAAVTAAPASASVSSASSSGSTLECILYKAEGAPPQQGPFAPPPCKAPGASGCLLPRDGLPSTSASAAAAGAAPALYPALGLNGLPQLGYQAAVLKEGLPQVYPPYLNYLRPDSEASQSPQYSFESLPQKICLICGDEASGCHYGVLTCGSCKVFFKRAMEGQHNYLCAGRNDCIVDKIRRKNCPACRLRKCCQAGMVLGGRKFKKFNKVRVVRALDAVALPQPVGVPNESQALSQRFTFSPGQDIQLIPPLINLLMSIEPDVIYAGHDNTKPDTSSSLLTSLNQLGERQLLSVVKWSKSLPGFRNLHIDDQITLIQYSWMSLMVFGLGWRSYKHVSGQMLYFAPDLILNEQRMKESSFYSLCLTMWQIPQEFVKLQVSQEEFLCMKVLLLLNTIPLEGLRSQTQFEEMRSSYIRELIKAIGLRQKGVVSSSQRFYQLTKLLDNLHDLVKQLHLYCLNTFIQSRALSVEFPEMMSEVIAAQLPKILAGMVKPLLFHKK

[4] = target: T4, 5-hydroxytryptamine receptor 1A (Homo sapiens, UniProt P08908)
T4 sequence (P08908 whole entry): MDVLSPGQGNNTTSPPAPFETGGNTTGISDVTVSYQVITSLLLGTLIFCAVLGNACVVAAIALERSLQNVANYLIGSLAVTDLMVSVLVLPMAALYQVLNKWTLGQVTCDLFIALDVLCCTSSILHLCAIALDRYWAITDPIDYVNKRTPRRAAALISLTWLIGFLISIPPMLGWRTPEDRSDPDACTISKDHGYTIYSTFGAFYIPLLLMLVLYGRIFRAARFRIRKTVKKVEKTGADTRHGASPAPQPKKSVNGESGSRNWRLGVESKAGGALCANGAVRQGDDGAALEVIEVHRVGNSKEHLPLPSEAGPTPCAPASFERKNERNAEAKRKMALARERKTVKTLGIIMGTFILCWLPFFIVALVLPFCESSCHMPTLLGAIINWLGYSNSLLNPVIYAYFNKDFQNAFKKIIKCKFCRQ
Further: assay procedure not described here.

| SMILES | AC50 (Androgen receptor [2]) | AC50 (Endothelin-1 receptor) | AC50 (Androgen receptor [3]) | other results |
| --- | --- | --- | --- | --- |
| CCCN(CCC)S(=O)(=O)c1ccc(C(=O)O)cc1 [PROBENECID] |  |  |  | AC50 (Androgen receptor [1]): > 10 µM |
| CC(=O)c1ccc(S(=O)(=O)NC(=O)NC2CCCCC2)cc1 [ACETOHEXAMIDE] |  |  |  | AC50 (Androgen receptor [1]): > 10 µM |
| OC[C@H]1O[C@@H](Oc2cc(O)cc(/C=C/c3ccc(O)cc3)c2)[C@H](O)[C@@H](O)[C@@H]1O [PICEID] | > 30 µM | > 30 µM | > 30 µM |  |
| CO/N=C(\C(=O)N[C@@H]1C(=O)N2C(C(=O)O)=C(CSc3nc(=O)c(=O)[nH]n3C)CS[C@H]12)c1csc(N)n1 [CEFTRIAXONE] |  | > 30 µM |  |  |
| CC(C)(C)NCC(O)c1ccccc1Cl (stereo unspecified) [TULOBUTEROL] |  | > 30 µM |  |  |
| CCOC(=O)[C@@H](N)Cc1ccc(-c2cc(O[C@H](c3ccc(Cl)cc3-n3ccc(C)n3)C(F)(F)F)nc(N)n2)cc1 [TELOTRISTAT ETHYL] | > 30 µM | > 30 µM | > 30 µM |  |
| O=C(O)c1ccc(NC(=O)[C@H](Cc2ccc(O)cc2)NC(=O)c2ccccc2)cc1 [BENTIROMIDE] |  |  |  | AC50 (Androgen receptor [1]): > 10 µM |
| O=C(c1cc(Cc2n[nH]c(=O)c3ccccc23)ccc1F)N1CCN(C(=O)C2CC2)CC1 [OLAPARIB] |  |  |  | AC50 (Androgen receptor [1]): > 30 µM |
| COc1cc2[nH]c(C)c(CCN3CCN(c4ccccc4)CC3)c2cc1OC [OXYPERTINE] |  | > 30 µM |  |  |
| CC(CN(C)C)C(C)(O)Cc1ccc(Cl)cc1 (stereo unspecified) [CLOBUTINOL] |  |  |  | AC50 (Androgen receptor [1]): > 30 µM |
| CN1CCN=C(c2ccccc2)c2cc(Cl)ccc21 [MEDAZEPAM] |  | > 30 µM |  |  |
| COc1cc(C(=O)OCc2cccc(COC(=O)c3cc(OC)c(OC)c(OC)c3)n2)cc(OC)c1OC [PIROZADIL] | > 30 µM | > 30 µM | > 30 µM |  |
| CCC(NC(C)C)C(O)c1ccc(O)c2[nH]c(=O)ccc12 (stereo unspecified) [PROCATEROL] | > 30 µM | > 30 µM | > 30 µM |  |
| Cn1c(=O)c2c(ncn2CCOC(=O)C(C)(C)Oc2ccc(Cl)cc2)n(C)c1=O [THEOFIBRATE] |  | > 30 µM |  |  |
| CCN1CC(CCN2CCOCC2)C(c2ccccc2)(c2ccccc2)C1=O (stereo unspecified) [DOXAPRAM] |  | > 30 µM |  |  |
| O=C(NCCO[N+](=O)[O-])c1cccnc1 [NICORANDIL] |  | > 30 µM |  |  |
| CC(C)N(CCCCOCC(=O)O)c1cnc(-c2ccccc2)c(-c2ccccc2)n1 | > 30 µM | > 30 µM | 19 µM |  |
| C[N+]12CCC(CC1)C(OC(=O)C(O)(c1ccccc1)c1ccccc1)C2 (stereo unspecified) |  | > 30 µM |  |  |
| CCOC(=O)C(C)(C)Oc1ccc(Cl)cc1 [CLOFIBRATE] |  | > 30 µM |  | AC50 (Progesterone receptor): > 30 µM; AC50 [4]: > 10 µM |
| COc1cc(N)c(Cl)cc1C(=O)NC1CCN(CCCOc2ccc(F)cc2)CC1OC (stereo unspecified) [CISAPRIDE] |  | > 30 µM |  | AC50 (Progesterone receptor): > 30 µM; AC50 [4]: > 10 µM |
| C=CCN1CCc2nc(N)sc2CC1 [TALIPEXOLE] | > 30 µM | > 30 µM | > 30 µM |  |
| O=C(CCCN1CCC(O)(c2ccc(Br)cc2)CC1)c1ccc(F)cc1 [BROMPERIDOL] |  | > 30 µM |  |  |
| c1ccc(C2(N3CCCCC3)CCCCC2)cc1 [PHENCYCLIDINE] | > 30 µM | > 30 µM | > 30 µM |  |

From ChEMBL document CHEMBL5291721, “A preclinical secondary pharmacology resource illuminates target-adverse drug reaction associations of marketed drugs” (Nat Commun, 2023)
